Results published in the kinase profiling compilation of Christmann-Franck et al. (2016).

What was measured:
Test in all cases: radiometric filter-binding kinase assay, Kinase HotSpot
Settings in all cases: compound 0.5 µM; ATP 10 µM
ADRBK1 (human) = ADRBK1 (human) (UniProt P25098)
AKT2 (human) = AKT2 (human) (UniProt P31751)
AURKC (human) = AURKC (human) (UniProt Q9UQB9)
BRSK2 (human) = BRSK2 (human) (UniProt Q8IWQ3)
CAMK2G (human) = CAMK2G (human) (UniProt Q13555)
CDC42BPB (human) = CDC42BPB (human) (UniProt Q9Y5S2)
CDK1 CCNA2 (human) = CDK1 CCNA2 (human) (UniProt P06493+P20248)
CDK2 CCNE1 (human) = CDK2 CCNE1 (human) (UniProt P24941+P24864)
CDK4 CCND1 (human) = CDK4 CCND1 (human) (UniProt P24385+P11802)
CHEK1 (human) = CHEK1 (human) (UniProt O14757)
CSK (human) = CSK (human) (UniProt P41240)
FLT1 (human) = FLT1 (human) (UniProt P17948)
GRK4 (human) = GRK4 (human) (UniProt P32298)
GRK7 (human) = GRK7 (human) (UniProt Q8WTQ7)
GSK3B (human) = GSK3B (human) (UniProt P49841)
HIPK1 (human) = HIPK1 (human) (UniProt Q86Z02)
HIPK3 (human) = HIPK3 (human) (UniProt Q9H422)
IKBKB (human) = IKBKB (human) (UniProt O14920)
ITK (human) = ITK (human) (UniProt Q08881)
JAK2 JH1 JH2 (human) = JAK2 JH1 JH2 (human) (UniProt O60674)
KDR (human) = KDR (human) (UniProt P35968)
MAP3K14 (human) = MAP3K14 (human) (UniProt Q99558)
MAP3K3 (human) = MAP3K3 (human) (UniProt Q99759)
MAP3K8 (human) = MAP3K8 (human) (UniProt P41279)
MAPK1 (human) = MAPK1 (human) (UniProt P28482)
MAPK8 (human) = MAPK8 (human) (UniProt P45983)
MAPKAPK2 (human) = MAPKAPK2 (human) (UniProt P49137)
MLTK (human) = MLTK (human) (UniProt Q9NYL2)
NEK9 (human) = NEK9 (human) (UniProt Q8TD19)
OXSR1 (human) = OXSR1 (human) (UniProt O95747)
PHKG2 (human) = PHKG2 (human) (UniProt P15735)
PRKACA (human) = PRKACA (human) (UniProt P17612)
PRKCB2 (human) = PRKCB2 (human) (UniProt P05771)
ROS1 (human) = ROS1 (human) (UniProt P08922)
STK17A (human) = STK17A (human) (UniProt Q9UEE5)
STK24 (human) = STK24 (human) (UniProt Q9Y6E0)
TAOK3 (human) = TAOK3 (human) (UniProt Q9H2K8)
TEC (human) = TEC (human) (UniProt P42680)
TEK (human) = TEK (human) (UniProt Q02763)
ULK1 (human) = ULK1 (human) (UniProt O75385)
ULK2 (human) = ULK2 (human) (UniProt Q8IYT8)
WNK2 (human) = WNK2 (human) (UniProt Q9Y3S1)

ITK (human), sequence (Q08881 whole entry, looked up): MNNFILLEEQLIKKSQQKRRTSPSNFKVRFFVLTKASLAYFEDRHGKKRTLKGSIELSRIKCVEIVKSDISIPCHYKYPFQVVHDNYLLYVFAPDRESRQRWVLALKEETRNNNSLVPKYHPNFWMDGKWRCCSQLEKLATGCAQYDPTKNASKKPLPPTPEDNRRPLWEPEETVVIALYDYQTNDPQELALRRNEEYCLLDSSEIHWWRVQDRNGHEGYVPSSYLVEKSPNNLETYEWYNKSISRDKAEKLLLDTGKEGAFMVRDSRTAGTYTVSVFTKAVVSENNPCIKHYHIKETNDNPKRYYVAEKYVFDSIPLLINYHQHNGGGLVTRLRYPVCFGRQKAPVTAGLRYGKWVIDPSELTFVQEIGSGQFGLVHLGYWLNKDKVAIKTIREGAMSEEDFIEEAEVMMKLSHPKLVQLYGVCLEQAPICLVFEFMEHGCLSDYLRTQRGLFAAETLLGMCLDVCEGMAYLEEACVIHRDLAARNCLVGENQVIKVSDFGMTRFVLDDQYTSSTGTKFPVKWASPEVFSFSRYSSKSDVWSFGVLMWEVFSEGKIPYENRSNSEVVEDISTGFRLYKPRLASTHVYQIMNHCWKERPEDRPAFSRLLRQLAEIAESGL
PHKG2 (human), sequence (P15735 whole entry, looked up): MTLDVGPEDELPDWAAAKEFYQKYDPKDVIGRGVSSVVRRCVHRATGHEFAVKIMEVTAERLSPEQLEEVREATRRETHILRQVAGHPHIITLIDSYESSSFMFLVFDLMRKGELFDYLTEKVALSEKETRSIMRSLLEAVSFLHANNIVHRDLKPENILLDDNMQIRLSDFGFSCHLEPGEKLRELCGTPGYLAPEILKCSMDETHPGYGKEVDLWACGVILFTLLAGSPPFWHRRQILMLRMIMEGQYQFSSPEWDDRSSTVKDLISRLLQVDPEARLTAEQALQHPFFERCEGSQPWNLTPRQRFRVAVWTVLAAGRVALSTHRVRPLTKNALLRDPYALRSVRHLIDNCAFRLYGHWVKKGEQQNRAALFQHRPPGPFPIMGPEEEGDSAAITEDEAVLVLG
CDK4 CCND1 (human), sequence (P11802 whole entry, looked up): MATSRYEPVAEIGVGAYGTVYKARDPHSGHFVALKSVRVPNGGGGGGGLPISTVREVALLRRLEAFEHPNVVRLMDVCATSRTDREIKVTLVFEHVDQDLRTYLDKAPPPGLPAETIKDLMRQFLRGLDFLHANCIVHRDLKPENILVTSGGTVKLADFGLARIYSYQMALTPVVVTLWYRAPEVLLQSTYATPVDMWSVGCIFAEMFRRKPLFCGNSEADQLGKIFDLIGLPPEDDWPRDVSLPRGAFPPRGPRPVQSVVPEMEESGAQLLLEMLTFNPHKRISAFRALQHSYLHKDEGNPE
CDK4 CCND1 (human), sequence (P24385 whole entry, looked up): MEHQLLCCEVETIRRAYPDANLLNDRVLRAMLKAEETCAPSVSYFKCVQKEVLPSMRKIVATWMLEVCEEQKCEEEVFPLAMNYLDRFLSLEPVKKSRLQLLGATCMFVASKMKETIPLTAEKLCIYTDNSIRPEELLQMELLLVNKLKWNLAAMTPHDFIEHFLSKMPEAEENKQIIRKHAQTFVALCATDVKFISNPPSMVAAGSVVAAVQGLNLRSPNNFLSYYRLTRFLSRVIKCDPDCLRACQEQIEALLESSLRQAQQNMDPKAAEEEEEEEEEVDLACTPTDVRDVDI
AURKC (human), sequence (Q9UQB9 whole entry, looked up): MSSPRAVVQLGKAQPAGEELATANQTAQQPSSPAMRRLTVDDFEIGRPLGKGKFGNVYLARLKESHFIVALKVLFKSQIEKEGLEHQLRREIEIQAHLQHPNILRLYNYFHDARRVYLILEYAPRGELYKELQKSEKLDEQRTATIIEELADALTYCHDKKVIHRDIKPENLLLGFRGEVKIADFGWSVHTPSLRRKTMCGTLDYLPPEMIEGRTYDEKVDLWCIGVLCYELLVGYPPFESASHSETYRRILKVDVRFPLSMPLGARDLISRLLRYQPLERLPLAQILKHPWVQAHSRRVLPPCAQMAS
GRK7 (human), sequence (Q8WTQ7 whole entry, looked up): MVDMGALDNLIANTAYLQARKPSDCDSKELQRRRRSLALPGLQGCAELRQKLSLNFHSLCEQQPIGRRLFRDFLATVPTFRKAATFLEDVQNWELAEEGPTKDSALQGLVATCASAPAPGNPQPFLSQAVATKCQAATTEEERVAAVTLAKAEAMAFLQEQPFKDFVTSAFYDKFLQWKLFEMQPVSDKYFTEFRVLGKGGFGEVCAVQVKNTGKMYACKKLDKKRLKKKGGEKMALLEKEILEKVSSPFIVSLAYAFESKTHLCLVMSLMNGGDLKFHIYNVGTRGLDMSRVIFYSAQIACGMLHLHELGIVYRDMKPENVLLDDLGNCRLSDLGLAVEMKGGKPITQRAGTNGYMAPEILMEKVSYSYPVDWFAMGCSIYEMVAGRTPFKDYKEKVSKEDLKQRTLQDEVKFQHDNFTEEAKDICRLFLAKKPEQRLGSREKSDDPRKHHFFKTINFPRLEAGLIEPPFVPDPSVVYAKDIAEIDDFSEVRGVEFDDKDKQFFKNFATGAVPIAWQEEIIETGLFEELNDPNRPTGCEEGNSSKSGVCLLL
STK17A (human), sequence (Q9UEE5 whole entry, looked up): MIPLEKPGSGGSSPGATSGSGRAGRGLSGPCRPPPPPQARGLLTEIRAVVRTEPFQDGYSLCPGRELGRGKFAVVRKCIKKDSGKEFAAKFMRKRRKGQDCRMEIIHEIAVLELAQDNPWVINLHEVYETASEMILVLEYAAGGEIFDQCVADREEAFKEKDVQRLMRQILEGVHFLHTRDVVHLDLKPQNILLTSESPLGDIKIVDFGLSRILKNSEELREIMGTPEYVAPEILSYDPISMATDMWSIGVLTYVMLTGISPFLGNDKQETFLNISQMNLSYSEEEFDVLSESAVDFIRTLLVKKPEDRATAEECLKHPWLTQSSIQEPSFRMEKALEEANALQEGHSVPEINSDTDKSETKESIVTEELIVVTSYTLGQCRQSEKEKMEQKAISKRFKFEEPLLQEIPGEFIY
MAP3K14 (human), sequence (Q99558 whole entry, looked up): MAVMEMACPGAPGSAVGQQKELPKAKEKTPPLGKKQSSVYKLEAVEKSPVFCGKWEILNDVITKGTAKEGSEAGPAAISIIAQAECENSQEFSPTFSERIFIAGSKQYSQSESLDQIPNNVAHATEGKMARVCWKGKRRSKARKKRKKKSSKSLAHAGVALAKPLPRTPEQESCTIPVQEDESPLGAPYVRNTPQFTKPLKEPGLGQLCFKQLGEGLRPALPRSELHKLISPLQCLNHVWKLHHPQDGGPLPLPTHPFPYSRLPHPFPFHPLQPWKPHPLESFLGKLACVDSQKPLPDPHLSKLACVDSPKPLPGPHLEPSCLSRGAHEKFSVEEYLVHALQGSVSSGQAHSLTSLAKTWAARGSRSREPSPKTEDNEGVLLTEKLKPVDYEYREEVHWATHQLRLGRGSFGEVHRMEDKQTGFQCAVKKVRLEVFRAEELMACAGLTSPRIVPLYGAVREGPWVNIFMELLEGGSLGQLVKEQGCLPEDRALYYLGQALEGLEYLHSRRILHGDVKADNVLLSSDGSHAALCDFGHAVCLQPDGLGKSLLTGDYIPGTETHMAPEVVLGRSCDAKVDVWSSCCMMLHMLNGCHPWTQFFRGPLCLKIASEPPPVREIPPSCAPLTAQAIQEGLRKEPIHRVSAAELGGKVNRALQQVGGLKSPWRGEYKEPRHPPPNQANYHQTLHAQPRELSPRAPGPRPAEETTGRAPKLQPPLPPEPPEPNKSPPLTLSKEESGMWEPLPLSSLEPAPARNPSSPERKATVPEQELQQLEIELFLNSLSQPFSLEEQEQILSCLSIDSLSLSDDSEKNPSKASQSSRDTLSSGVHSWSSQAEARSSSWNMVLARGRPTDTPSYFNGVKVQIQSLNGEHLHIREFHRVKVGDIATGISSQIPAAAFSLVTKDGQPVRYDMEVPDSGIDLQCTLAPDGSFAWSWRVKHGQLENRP
MAPKAPK2 (human), sequence (P49137 whole entry, looked up): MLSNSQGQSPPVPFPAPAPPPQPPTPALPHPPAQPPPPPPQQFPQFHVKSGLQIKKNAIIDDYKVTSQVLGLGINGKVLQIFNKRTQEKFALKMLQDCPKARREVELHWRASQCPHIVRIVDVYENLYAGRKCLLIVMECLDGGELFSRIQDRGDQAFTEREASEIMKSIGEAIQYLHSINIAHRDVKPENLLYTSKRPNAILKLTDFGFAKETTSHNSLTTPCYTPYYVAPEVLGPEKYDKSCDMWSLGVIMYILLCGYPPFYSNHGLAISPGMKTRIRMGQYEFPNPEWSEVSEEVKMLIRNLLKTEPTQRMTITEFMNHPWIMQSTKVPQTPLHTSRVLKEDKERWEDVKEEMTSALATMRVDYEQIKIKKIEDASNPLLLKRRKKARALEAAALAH
MAP3K8 (human), sequence (P41279 whole entry, looked up): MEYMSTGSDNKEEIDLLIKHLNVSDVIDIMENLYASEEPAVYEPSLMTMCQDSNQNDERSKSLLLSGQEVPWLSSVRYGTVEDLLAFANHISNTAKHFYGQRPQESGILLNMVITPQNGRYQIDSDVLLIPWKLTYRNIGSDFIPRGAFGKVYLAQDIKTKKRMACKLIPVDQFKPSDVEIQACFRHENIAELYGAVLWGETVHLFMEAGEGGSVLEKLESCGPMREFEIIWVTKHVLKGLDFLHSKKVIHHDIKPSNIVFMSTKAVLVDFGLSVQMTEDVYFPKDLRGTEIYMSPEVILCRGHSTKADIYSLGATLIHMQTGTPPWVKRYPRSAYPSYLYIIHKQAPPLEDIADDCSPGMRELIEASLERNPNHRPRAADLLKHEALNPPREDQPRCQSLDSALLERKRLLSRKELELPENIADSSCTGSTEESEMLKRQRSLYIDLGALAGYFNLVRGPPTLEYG

Compound: COc1cc2c(cc1OC)-c1[nH]nc(Nc3cccc(F)c3)c1C2
- residual activity (ADRBK1 (human)): 93%
- residual activity (AKT2 (human)): 95.3%
- residual activity (AURKC (human)): 94.5%
- residual activity (BRSK2 (human)): 92.1%
- residual activity (CAMK2G (human)): 101%
- residual activity (CDC42BPB (human)): 99.2%
- residual activity (CDK1 CCNA2 (human)): 92.6%
- residual activity (CDK2 CCNE1 (human)): 88.6%
- residual activity (CDK4 CCND1 (human)): 93.9%
- residual activity (CHEK1 (human)): 92.4%
- residual activity (CSK (human)): 44.9%
- residual activity (FLT1 (human)): 82.6%
- residual activity (GRK4 (human)): 97.1%
- residual activity (GRK7 (human)): 101%
- residual activity (GSK3B (human)): 96.6%
- residual activity (HIPK1 (human)): 96.4%
- residual activity (HIPK3 (human)): 100%
- residual activity (IKBKB (human)): 98.2%
- residual activity (ITK (human)): 85.5%
- residual activity (JAK2 JH1 JH2 (human)): 107%
- residual activity (KDR (human)): 98.7%
- residual activity (MAP3K14 (human)): 105%
- residual activity (MAP3K3 (human)): 103%
- residual activity (MAP3K8 (human)): 99.9%
- residual activity (MAPK1 (human)): 85.1%
- residual activity (MAPK8 (human)): 85.2%
- residual activity (MAPKAPK2 (human)): 97.2%
- residual activity (MLTK (human)): 44.7%
- residual activity (NEK9 (human)): 102%
- residual activity (OXSR1 (human)): 121%
- residual activity (PHKG2 (human)): 121%
- residual activity (PRKACA (human)): 92.8%
- residual activity (PRKCB2 (human)): 103%
- residual activity (ROS1 (human)): 97.5%
- residual activity (STK17A (human)): 87%
- residual activity (STK24 (human)): 99.9%
- residual activity (TAOK3 (human)): 91.5%
- residual activity (TEC (human)): 95%
- residual activity (TEK (human)): 92.5%
- residual activity (ULK1 (human)): 103%
- residual activity (ULK2 (human)): 97.3%
- residual activity (WNK2 (human)): 104%

Compound: O=C1NC(=O)c2c1c1c3ccccc3[nH]c1c1[nH]c3cc(Br)ccc3c21
- residual activity (ADRBK1 (human)): 97.6%
- residual activity (AKT2 (human)): 86.9%
- residual activity (AURKC (human)): 51.9%
- residual activity (BRSK2 (human)): 35.6%
- residual activity (CAMK2G (human)): 99.5%
- residual activity (CDC42BPB (human)): 84.1%
- residual activity (CDK1 CCNA2 (human)): 91.9%
- residual activity (CDK2 CCNE1 (human)): 74.9%
- residual activity (CDK4 CCND1 (human)): 84.9%
- residual activity (CHEK1 (human)): 79.7%
- residual activity (CSK (human)): 100%
- residual activity (FLT1 (human)): 56.5%
- residual activity (GRK4 (human)): 99.8%
- residual activity (GRK7 (human)): 98.2%
- residual activity (GSK3B (human)): 63.7%
- residual activity (HIPK1 (human)): 98.2%
- residual activity (HIPK3 (human)): 93.3%
- residual activity (IKBKB (human)): 92.2%
- residual activity (ITK (human)): 84.1%
- residual activity (JAK2 JH1 JH2 (human)): 95.8%
- residual activity (KDR (human)): 67.9%
- residual activity (MAP3K14 (human)): 101%
- residual activity (MAP3K3 (human)): 105%
- residual activity (MAP3K8 (human)): 89%
- residual activity (MAPK1 (human)): 92.4%
- residual activity (MAPK8 (human)): 85.2%
- residual activity (MAPKAPK2 (human)): 101%
- residual activity (MLTK (human)): 88.8%
- residual activity (NEK9 (human)): 83.6%
- residual activity (OXSR1 (human)): 95.8%
- residual activity (PHKG2 (human)): 94.8%
- residual activity (PRKACA (human)): 103%
- residual activity (PRKCB2 (human)): 72.8%
- residual activity (ROS1 (human)): 74.4%
- residual activity (STK17A (human)): 29.5%
- residual activity (STK24 (human)): 80.1%
- residual activity (TAOK3 (human)): 82.3%
- residual activity (TEC (human)): 105%
- residual activity (TEK (human)): 93.8%
- residual activity (ULK1 (human)): 99.2%
- residual activity (ULK2 (human)): 86%
- residual activity (WNK2 (human)): 92.1%

Compound: N#CCCc1ccc2c(c1)-c1[nH]c3ccc([N+](=O)[O-])cc3c1CC(=O)N2
- residual activity (ADRBK1 (human)): 96.4%
- residual activity (AKT2 (human)): 100%
- residual activity (AURKC (human)): 83.6%
- residual activity (BRSK2 (human)): 42%
- residual activity (CAMK2G (human)): 66%
- residual activity (CDC42BPB (human)): 54.1%
- residual activity (CDK1 CCNA2 (human)): 24.8%
- residual activity (CDK2 CCNE1 (human)): 13.4%
- residual activity (CDK4 CCND1 (human)): 11.8%
- residual activity (CHEK1 (human)): 45.1%
- residual activity (CSK (human)): 96.3%
- residual activity (FLT1 (human)): 99.7%
- residual activity (GRK4 (human)): 101%
- residual activity (GRK7 (human)): 97.7%
- residual activity (GSK3B (human)): 2.71%
- residual activity (HIPK1 (human)): 97.9%
- residual activity (HIPK3 (human)): 104%
- residual activity (IKBKB (human)): 96.3%
- residual activity (ITK (human)): 99.9%
- residual activity (JAK2 JH1 JH2 (human)): 93%
- residual activity (KDR (human)): 75.5%
- residual activity (MAP3K14 (human)): 161%
- residual activity (MAP3K3 (human)): 83.3%
- residual activity (MAP3K8 (human)): 87.5%
- residual activity (MAPK1 (human)): 119%
- residual activity (MAPK8 (human)): 93.1%
- residual activity (MAPKAPK2 (human)): 83.4%
- residual activity (MLTK (human)): 88.6%
- residual activity (NEK9 (human)): 103%
- residual activity (OXSR1 (human)): 94.6%
- residual activity (PHKG2 (human)): 99.1%
- residual activity (PRKACA (human)): 87.6%
- residual activity (PRKCB2 (human)): 76.3%
- residual activity (ROS1 (human)): 71%
- residual activity (STK17A (human)): 46.8%
- residual activity (STK24 (human)): 57.7%
- residual activity (TAOK3 (human)): 66%
- residual activity (TEC (human)): 120%
- residual activity (TEK (human)): 97.6%
- residual activity (ULK1 (human)): 94.2%
- residual activity (ULK2 (human)): 73.1%
- residual activity (WNK2 (human)): 112%

Compound: O=c1c2ccccc2[nH]c(=S)n1CCN1CCC(=C(c2ccc(F)cc2)c2ccc(F)cc2)CC1
- residual activity (ADRBK1 (human)): 100%
- residual activity (AKT2 (human)): 101%
- residual activity (AURKC (human)): 99.4%
- residual activity (BRSK2 (human)): 99.8%
- residual activity (CAMK2G (human)): 97.9%
- residual activity (CDC42BPB (human)): 106%
- residual activity (CDK1 CCNA2 (human)): 96.8%
- residual activity (CDK2 CCNE1 (human)): 97.3%
- residual activity (CDK4 CCND1 (human)): 99.6%
- residual activity (CHEK1 (human)): 108%
- residual activity (CSK (human)): 119%
- residual activity (FLT1 (human)): 95.2%
- residual activity (GRK4 (human)): 107%
- residual activity (GRK7 (human)): 111%
- residual activity (GSK3B (human)): 112%
- residual activity (HIPK1 (human)): 107%
- residual activity (HIPK3 (human)): 97.7%
- residual activity (IKBKB (human)): 99.5%
- residual activity (ITK (human)): 97.1%
- residual activity (JAK2 JH1 JH2 (human)): 92%
- residual activity (KDR (human)): 93.1%
- residual activity (MAP3K14 (human)): 75.7%
- residual activity (MAP3K3 (human)): 102%
- residual activity (MAP3K8 (human)): 100%
- residual activity (MAPK1 (human)): 102%
- residual activity (MAPK8 (human)): 98.9%
- residual activity (MAPKAPK2 (human)): 106%
- residual activity (MLTK (human)): 98.6%
- residual activity (NEK9 (human)): 97%
- residual activity (OXSR1 (human)): 115%
- residual activity (PHKG2 (human)): 100%
- residual activity (PRKACA (human)): 101%
- residual activity (PRKCB2 (human)): 98.2%
- residual activity (ROS1 (human)): 98.8%
- residual activity (STK17A (human)): 103%
- residual activity (STK24 (human)): 93.4%
- residual activity (TAOK3 (human)): 92.4%
- residual activity (TEC (human)): 110%
- residual activity (TEK (human)): 96.1%
- residual activity (ULK1 (human)): 98.1%
- residual activity (ULK2 (human)): 96.5%
- residual activity (WNK2 (human)): 96.3%
